Measurements: PMC9981206 (Cancer Research Communications, 2022)

Experiment: 28-day oral repeated dose toxicity study
Format: in vivo, mice
Experimental: Body weight and food consumption were measured thrice weekly. For the experiment using 10 mg/kg oral–twice daily dosing, blood was collected at the end of the experiment and hematologic and clinical biochemistry analyses were performed at IDEXX according to their standard protocols. Duodenum, jejunum, ileum, colon–rectum, lymph nodes, pancreas, heart, kidney, liver, spleen, lung, prostate, and testis were collected, formalin-fixed (10%), paraffin-embedded, stained with hematoxylin and eosin (H&E), and imaged as previously described ([39]). Staining of ileums using immunofluorescence was performed as previously described ([29, 39]). […] DAPI nuclear dye [(340 nm), 1 μg/μL, D9542, Sigma Aldrich] was added to the final washing solution. […] Imaging was performed using confocal microscopy as described previously ([39]). All animal experiments were approved by local animal experiment authorities (ethics committee of the Chinese Association for Laboratory Animal Sciences, German Centre for the Protection of Laboratory Animals, and Norwegian Food Safety Authority), and were carried out in compliance with FELASA guidelines and recommendations.

[1] = 10 mg/kg oral twice daily, 28 days, CD-1 mice
[2] = 10 mg/kg oral twice daily, 28 days, CD-1 mice, clinical biochemistry
[3] = 10 mg/kg oral twice daily, 28 days, CD-1 mice, hematology

Structure (SMILES): CCOc1ccc(-c2nnc([C@H]3C[C@H](NC(=O)c4cccc5nccnc45)C3)n2-c2ccccc2F)nc1 [OM-153]
- clinical signs, body weight, food consumption [1]: no clinical signs, body weight loss, or reduced food consumption were observed
- histopathology of other organs [1]: No atypical histopathologic changes
- overall intestinal architecture [1]: intact
- expression of the ISC marker and WNT/β-catenin signaling target gene Lgr5 in ileum (10 mg/kg oral twice daily, 28 days, CD-1 mice, RNAscope): reduced
- AST, ALT and GLDH levels [2]: insignificant alteration
- magnesium, potassium, and triglycerides [2]: significant decreases
- erythrocytes and hemoglobin [3]: moderate but significant reduction
- leukocytes and reticulocytes [3]: tendency toward reduced
- histopathology of the other organs (100 mg/kg oral twice daily, C57BL/6J mice): No abnormal histopathologic changes
- small intestine histopathology (100 mg/kg oral twice daily, C57BL/6J mice, 2 out of three mice): loss of villi height, width, crypt, and as well as surface epithelium, accompanied by inflammation
- clinical observation and body weight (100 mg/kg oral twice daily, C57BL/6J mice, euthanized on day 7): reduced activity and body weight loss in 3 of 4 mice
- kidney histopathology (100 mg/kg oral twice daily, C57BL/6J mice, same mice as intestinal damage): signs of acute tubular damage in the kidney
